# In ChEMBL document CHEMBL5518202, “Discovery of a Potent Nicotinamide Phosphoribosyltransferase Activator for Improving Aging-associated Dysfunctions” (J Med Chem, 2024):
# Target: Nicotinamide phosphoribosyltransferase (Homo sapiens, UniProt P43490)
# Test: Binding affinity to NAMPT (unknown origin) assessed as dissociation constant incubated for 30 mins by microscale thermophoresis analysis
# Nicotinamide phosphoribosyltransferase, sequence (P43490 whole entry): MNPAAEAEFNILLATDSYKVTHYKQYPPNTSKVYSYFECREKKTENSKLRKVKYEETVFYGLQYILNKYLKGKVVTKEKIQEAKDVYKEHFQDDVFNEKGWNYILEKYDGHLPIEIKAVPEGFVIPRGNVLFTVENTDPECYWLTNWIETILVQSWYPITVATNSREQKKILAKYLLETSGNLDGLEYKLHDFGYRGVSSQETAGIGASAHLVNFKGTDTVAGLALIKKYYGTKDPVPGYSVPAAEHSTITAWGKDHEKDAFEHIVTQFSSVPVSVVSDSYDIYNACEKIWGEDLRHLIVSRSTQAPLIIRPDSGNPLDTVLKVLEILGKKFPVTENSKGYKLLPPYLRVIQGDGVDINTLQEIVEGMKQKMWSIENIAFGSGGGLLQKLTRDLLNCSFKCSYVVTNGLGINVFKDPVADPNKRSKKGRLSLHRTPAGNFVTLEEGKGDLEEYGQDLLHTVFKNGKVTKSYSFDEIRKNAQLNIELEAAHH
smiles,measurement,value
O=C(NCc1ccncc1)Nc1ccc(S(=O)(=O)N2CC3CCC(C2)O3)cc1,Kd,6.82 µM
